One experiment deals with MDA-MB-231 cells. The experiment is described as follows: MTT cytotoxicity assay, MDA-MB-231. Format: cell-based, human. On the procedure: (§1) L929, MCF-7, and MDA-MB-231 cell lines were cultured in DMEM GlutaMAX media containing 10% heat-inactivated FBS and 1% (v/v) penicillin-streptomycin at 37°C and CO2 (5%). Cytotoxicity was determined using a 3-(4,5-dimethyl 2-thiazolyl)-2,5-diphenyl-2H-tetrazolium bromide (MTT) assay. 100 μL aliquots and approximately 50’000 cells/well were added to each well of flat-bottomed 96-well plates and incubated for 24 h in a humidified chamber at 37°C under saturated air with a 5% CO2 atmosphere. Stock solutions of 10 mM drug compounds were prepared in DMSO and were sequentially diluted with the cell culture buffer to give a final DMSO concentration of 0.5%. The solutions were added to the 96-well plates in 100 μL aliquots and 100 μL of buffer was added as a control to give a final drug compound concentration range of 0 − 100 μM. The plates were incubated for a further 72 h under the same conditions as before. MTT (10 μL, 5 mg/mL in Dulbecco’s phosphate-buffered saline) was added to each well and the plates were incubated for a further 3 h under the same conditions as before. The culture medium was aspirated from each well and the purple formazan crystals, formed by the mitochondrial dehydrogenase activity of vital cells, were dissolved in 100 μL DMSO. The absorbance of the resulting solutions was measured at 570 and 630 nm using a SpectraMax M5e multimode microplate reader and SoftMax Pro software, version 6.2.2. As the absorbance is directly proportional to the number of surviving cells, the percentage of surviving cells was calculated from the absorbance of wells relative to the control. The reported IC50 values are based on the mean from four independent experiments, each comprising three replicates per concentration.
For orientation: Tetrazolium dyes change colour on reduction, which living cells bring about.

The subject of a further experiment is MCF-7 cells. The experiment is described as follows: MTT cytotoxicity assay, MCF-7. Format: cell-based, human. The protocol: as §1
The target of experiment [1] is T1, GST P1-1 (Homo sapiens, UniProt P09211).
T1 construct: purchased Sigma-Aldrich
T1 sequence (P09211 2-210 limits assumed): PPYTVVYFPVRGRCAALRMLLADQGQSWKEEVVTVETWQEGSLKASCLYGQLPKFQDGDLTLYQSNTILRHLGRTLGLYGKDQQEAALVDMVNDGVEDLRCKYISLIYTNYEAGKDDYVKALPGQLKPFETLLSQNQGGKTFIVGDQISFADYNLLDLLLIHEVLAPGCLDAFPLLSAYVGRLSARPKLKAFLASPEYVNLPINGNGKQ
Nature of the experiment: High-throughput GST P1-1 inhibition assay (384-well screen, CDNB/GSH). Format: biochemical. As to conditions: compound 10 μM; score 0 = negative control (DMSO), 1 = positive control (EA 50 μM); average of duplicate. On the procedure:
(§2) Each drug compound was added to the respective well at a volume of 80 nL of 10 mM stock solution in DMSO, yielding a final compound concentration of 10 μM and a final DMSO concentration of 0.1%. Each plate’s first and last two columns were used as negative (no compound added – 80 nL per well of DMSO) and positive (80 nL of EA added with a final concentration of 50 μM) controls, respectively. The Gyger Certus Flex dispenser was set up using a freshly prepared 1 mM of GSH and 20 nM of GST P1-1, pH 7.4, in one syringe and 8 mM CDNB solution in pure ethanol in the other syringe. Into each well 80 μL of GST-GSH solution was dispensed and incubated at 25°C for 20 minutes before the reaction was initiated by the addition of 4 μL of CDNB solution. The plates were incubated for 2 h in the dark at 25°C and then the absorbance was of each well recorded on a BioTek Synergy NEO HTS multimode plate reader (Agilent®) at a wavelength of 340 nm.
The z’factor was calculated for each plate according to Zhang et al.. The Z-factor is a dimensionless, simple statistical characteristic for each HTS assay. This provides a valuable tool for the comparison and assessment of the quality of assays, and can be utilized in assay optimization and validation. For each plate, the concentration of product was normalized by assigning a score of 0 (0%) to the negative control (average of maximal concentration of product measured in the presence of enzyme without any inhibitor) and a score of 1 (100%) was assigned to the positive control (average minimal concentration of product measured in the presence of enzyme with the reference inhibitor, i.e., EA). The experiment was performed in duplicate and the score for each drug compound was calculated as an average ± standard deviation. […] An internal laboratory information management system (LIMS) was used for basic data processing, management, visualization, and statistical hit validation.

Experiment [2] addresses T1, GST P1-1. Nature of the experiment: Determination of inhibitor binding mechanism (kinetic GST P1-1 activity assay). As to conditions: from Km and Vmax versus reaction without inhibitor. Format: biochemical. On the procedure: The GST P1-1 concentration used in the assays was 0.02 U mL^-1.
1 mM GSH final concentration was used. The GST P1-1 was pre-incubated with the GSH for 20 minutes at room temperature before the addition of 12.5 μL of 4 mM solution of CDNB. The reaction rate was recorded against time using UV/VIS spectrophotometer (SpectraMax M5e from Molecular devices) at […].
The drug compounds’ inhibition mechanism was investigated using the kinetic GST P1-1 activity assay. Concentrations of CDNB ranged from 0–40 mM with the drug solution at a constant concentration of 5 μM. Experiments were performed in duplicate.
The Michaelis-Menten constant, Km, and […] Vmax were calculated using GraphPad Prism 9 software. To identify the type of inhibition the Michaelis-Menten equation was applied (Eq. 1): […]
where v0 is the initial velocity of the reaction, Vmax is the maximum velocity achieved by the reaction at maximum concentrations of substrate, [S] is the concentration of substrate, and Km is the substrate concentration at which the reaction velocity is half of the Vmax (Michaelis-Menten constant). The Michaelis-Menten equation predicts a hyperbolic relationship between initial velocity and substrate concentration, describing the kinetic behavior of enzymes. Evaluating the differences in Km and Vmax compared with the reaction without an inhibitor allows the competition type of an inhibitor to be identified. Competitive inhibitors present an increase in the Km and with Vmax unaffected. Non-competitive inhibitors present a […] Vmax.

For another experiment, the system named is L929 cells. The experiment is described as follows: MTT cytotoxicity assay, L929. As to conditions: for selectivity towards the breast cancer cell lines: MCF-7 and MDA-MB-231 versus non-tumorigenic L929, 72 h MTT; for IC50: MTT, 72 h incubation, read-out: IC50 (average ± standard deviation) L929. Format: cell-based, mouse. The protocol:
as §1, with “Cytotoxicity” for “L929, MCF-7, and MDA-MB-231 cell lines were cultured in DMEM GlutaMAX media containing 10% heat-inactivated FBS and 1% (v/v) penicillin-streptomycin at 37°C and CO2 (5%). Cytotoxicity”, “Stock solutions of 10 mM drug compounds were prepared in DMSO and were sequentially diluted with the cell culture buffer to give a final DMSO concentration of 0.5%. The solutions were added to the 96-well plates in 100 μL aliquots and 100 μL of buffer was added as a control to give a final drug compound concentration range of 0 − 100 μM.” left out

In experiment [3] the target is T1, GST P1-1. The experiment is described as follows: Determination of IC50 for GST P1-1 enzyme (dose-response / reconfirmation assay). Format: biochemical. On the procedure:
as §2
The IC50 of the GST P1-1 enzyme was determined for the 80 drug compounds with the highest score in the GST P1-1 screening assay. The assay conditions were used for the screening assay and each drug compound was tested at 8 different concentrations (μM) starting at 30 µM final assay concentration with a half-log dilution and 2 replicates per concentration.

[4] abbreviates: Homo sapiens, MDA-MB-231, MTT, 72 h incubation, read-out: IC50 (average ± standard deviation) MDA-MB-231.
The mark [5] stands for this setting: Homo sapiens, MDA-MB-231, compound alone, read-out: Concentration IC50 isolated (MDA-MB-231 cell line).
Where [6] appears, read: Homo sapiens, MCF7, MTT, 72 h incubation, read-out: IC50 (average ± standard deviation) MCF-7.
Where [7] appears, read: Homo sapiens, MCF7, compound alone, read-out: Concentration IC50 isolated (MCF-7 cell line).
Where [8] appears, read: Table 2, rounded values, read-out: IC50 GSTP1 enzymatic reaction.
The mark [9] stands for this setting: MTT, 72 h incubation, read-out: IC50 (average ± standard deviation) MDA-MB-231.
Where [10] appears, read: MTT, 72 h incubation, read-out: IC50 (average ± standard deviation) MCF-7.
Setting [11] is: reconfirmation assay, Table S2, read-out: IC50 GSTP1.

Where a name gives a salt, the structure may show the parent alone. Read-outs that look alike come from different tables or passages of the source.

Consider 7 molecules from paper PMC12289066, “Identification of glutathione transferase (GST P1) inhibitors via a high-throughput screening assay and implications as alternative treatment options for breast cancers” (PLOS One, 2025).

Turning to `CC(C)N(CCC(=O)c1ccc2ccccc2c1)Cc1ccccc1` [ZM 39923 (hydrochloride)], the IC50 in the experiment on MDA-MB-231 cells (setting [4]) was 2.6 ± 0.1 µM; with MDA-MB-231 cells (setting [5]) it was 2.6 µM; with MCF-7 cells (setting [6]), 4.3 ± 0.1 µM; in the experiment on MCF-7 cells (setting [7]) it was 4.3 µM; in the experiment with L929 cells (Mus musculus, L929), 8.2 ± 0.6 µM; at GST P1-1 [3] (setting [8]), 1.5 µM. Further, the Score at GST P1-1 [1] came out at 0.788. For the same molecule, the Inhibition mechanism entry on GST P1-1 [2] is listed as “Competitive”. The “selectivity towards the breast cancer cell lines” value in the experiment with L929 cells was “reasonable degree of selectivity”. Also, at GST P1-1 [3] (reconfirmation assay), the “Hill Slope (dose-response curve)” value is 1.56.

On to `O=C1C(=Cc2cccnc2)C(=O)c2ccccc21` [PRT 4165], for which the IC50 in the experiment with MDA-MB-231 cells (setting [4]) was 27 ± 6 µM; in the experiment on MDA-MB-231 cells (setting [5]) it was 27 µM; with MCF-7 cells (setting [6]), 59 ± 7 µM; in the experiment on MCF-7 cells (setting [7]), 59 µM; with L929 cells (Mus musculus, L929), > 100 µM; on GST P1-1 [3] (setting [8]) it was 1.3 µM. The Score on GST P1-1 [1] is recorded as 0.890. The Inhibition mechanism result at GST P1-1 [2] is “Non-competitive”. Also, the “selectivity towards the breast cancer cell lines” value in the experiment with L929 cells is “reasonable degree of selectivity”. In addition, at GST P1-1 [3] (reconfirmation assay), the “Hill Slope (dose-response curve)” value was found to be 1.2.

Turning to `C[C@H]1COC2=C1C(=O)C(=O)c1c2ccc2c1CCCC2(C)C` [Cryptotanshinone 97.0%, Cryptotanshinone], the IC50 with MDA-MB-231 cells (setting [4]) was 2.9 ± 0.3 µM; with MDA-MB-231 cells (setting [5]) it was 2.9 µM; with MCF-7 cells (setting [6]), 0.29 ± 0.04 µM; in the experiment on MCF-7 cells (setting [7]), 0.29 µM; with L929 cells (Mus musculus, L929), 4.4 ± 0.3 µM; on GST P1-1 [3] (setting [8]), 8.9 µM. Moreover, the Score at GST P1-1 [1] is reported as 1.037. Besides, the Inhibition mechanism entry on GST P1-1 [2] is reported as “Non-competitive”. In the experiment on L929 cells, the “selectivity towards the breast cancer cell lines” value is listed as “reasonable degree of selectivity”. Also, the “Hill Slope (dose-response curve)” value at GST P1-1 [3] (reconfirmation assay) stood at 0.85.

Take PSB 06126: the IC50 with MDA-MB-231 cells (setting [9]) is > 100 µM; with MCF-7 cells (setting [10]), 45 ± 3 µM; in the experiment with L929 cells, 39 ± 4 µM; on GST P1-1 [3] (setting [8]), 0.3 µM; on GST P1-1 [3] (setting [11]), 0.29 µM. Moreover, on GST P1-1 [1], the Score was 0.962. Further, the “Hill Slope (dose-response curve)” value at GST P1-1 [3] (reconfirmation assay) turned out to be 3.4.

Turning to `O=C(O)c1ccc2cc(-c3ccc(O)c(C45CC6CC(CC(C6)C4)C5)c3)ccc2c1` [CD437], the IC50 in the experiment with MDA-MB-231 cells (setting [9]) was 0.74 ± 0.07 µM; in the experiment on MCF-7 cells (setting [10]), 0.51 ± 0.05 µM; in the experiment on L929 cells it was 0.24 ± 0.03 µM; on GST P1-1 [3] (setting [8]) it was 0.3 µM; on GST P1-1 [3] (setting [11]), 0.32 µM. On GST P1-1 [1], the Score is recorded as 0.939. Moreover, the “Hill Slope (dose-response curve)” value on GST P1-1 [3] (reconfirmation assay) is recorded as 11.6.

As to `CCc1ccc(/C=C2/SC(=S)NC2=O)cc1` [10058-F4], the IC50 was 15 ± 4 µM in the experiment with MDA-MB-231 cells (setting [4]); 15 µM with MDA-MB-231 cells (setting [5]); 14 ± 2 µM with MCF-7 cells (setting [6]); 14 µM with MCF-7 cells (setting [7]); > 100 µM in the experiment on L929 cells (Mus musculus, L929); 2.8 µM at GST P1-1 [3] (setting [8]). Also, the IC50 at GST P1-1 [3] (setting [11]) was determined as 2.75 µM. Besides, the Score on GST P1-1 [1] is reported as 0.731. Further, the Inhibition mechanism result on GST P1-1 [2] is reported as “Non-competitive”. The “selectivity towards the breast cancer cell lines” value in the experiment on L929 cells is “highly selective”. Also, the “Hill Slope (dose-response curve)” value on GST P1-1 [3] (reconfirmation assay) is reported as 1.37.

As for `O=C(O)c1ccc(S(=O)(=O)N(Cc2ccc(OC(F)(F)F)cc2)c2ncc(C(F)(F)F)cc2Cl)cc1` [RQ-00203078], the IC50 with MDA-MB-231 cells (setting [9]) amounted to 51 ± 6 µM; in the experiment on MCF-7 cells (setting [10]) it was 17 ± 2 µM; with L929 cells, 42 ± 6 µM; at GST P1-1 [3] (setting [8]), 3.1 µM. Moreover, the Score on GST P1-1 [1] is given as 0.697. For the same molecule, the “Hill Slope (dose-response curve)” value at GST P1-1 [3] (reconfirmation assay) is 1.6.
